Legend:
CCRF-CEM/VBL = assay: In vitro cytotoxicity, XTT assay, vinblastine resistant subline; assay type: cell-based, human; conditions: for IC50: Homo sapiens, CCRF-CEM, XTT assay, 72-hr incubation; for fold of cross-resistant, CCRF-CEM/VBL vs IC50 of the parent cell line: numbers in brackets
Text: (§1) Human colon carcinoma HCT-116 cells, human prostate adenocarcinoma PC-3 and adenocarcinoma SK-OV-3 cells were obtained from American Type Culture Collection (ATCC, Rockville, Md.). Human mammary carcinoma (MX-1) tumor cells were obtained from MSKCC cell bank. The CCRF-CEM human lymphoblastic leukemia cells and their vinblastine resistant subline (CCRF-CEM/VBL, 680-fold resistance in vitro) were obtained from Dr. William Beck of the University of Illinois, Chicago, and CCRF-CEM/Taxol (330-fold resistance in vitro). Resistant cells CCRF-CEM/taxol were produced by exposing the parent cells to increasing sublethal concentration (IC50-IC90) of paclitaxel for six months.
(§2) In preparation for in vitro cytotoxicity assays, cells were cultured at an initial density 2-5×10^4 cells per milliliter. They were maintained in a 5% CO2-humidified atmosphere at 37° C. in RPMI medium 1640 (GIBCO/BRL) containing penicillin (100 units/mL), streptomycin (100 μg/mL, GIBCO/BRL), and 5% heat-inactivated FBS. For cells grown in suspension (such as CCRF-CEM and its sublines), cytotoxicity was measured, by using XTT microculture method in 96-well microtiter plates (Scudiero D A et al., Cancer Res. 1988, 48, 4827-4833). For solid tumor cells growing in a monolayer (such as MX-1 and HCT-116), cytotoxicity of the drug was determined, in duplicate, in 96-well microtiter plates by using the sulforhodamine B method (Skehan P et al., J. Natl. Cancer Inst 1990, 82, 1107-1112). For both methods, the absorbance of each well was measured with a microplate reader (Power Wave XS, Bio-Tek, Winooski, Vt.) after 72-hr incubation as described previously (Chou T-C et al., Proc. Natl. Acad. Sci. USA 2001, 98, 8113-8118). Dose-effect relationship data from 6 to 7 concentrations of each drug, in duplicate, were analyzed by using a computer program (Chou T-C et al., ComboSyn, Inc., Paramus, N J. 2005) based on the median-effect principle and plot (Chou T-C et al., Adv. Enzyme Regul. 1984, 22, 27-55; Chou T-C, Pharmacol. Rev. 2006, 58, 621-681).
(§3) The IC50 is defined by the concentration required to inhibit tumor cell growth by 50%. […] The growth inhibition of the compounds disclosed herein against human lymphoblastic leukemic cells (CCRF-CEM) and its drug-resistant sublines (resistant to vinblastine and taxol, CCRF-CEM/VBL and CCRF-CEM/taxol, respectively) is also shown in Table 5. […] Thus, the compounds disclosed herein are effective against multiple drug resistant tumors.

CCRF-CEM/Taxol = assay: In vitro cytotoxicity, XTT assay, taxol resistant subline; assay type: cell-based, human; conditions: for IC50: Homo sapiens, CCRF-CEM, XTT assay, 72-hr incubation; for fold of cross-resistant, CCRF-CEM/Taxol vs IC50 of the parent cell line: numbers in brackets
Text: as §1, §2, §3

[1] = test system: Human mammary carcinoma (MX-1) tumor cells; assay: In vitro cytotoxicity, sulforhodamine B (SRB) assay; assay type: cell-based; conditions: Homo sapiens, 72-hr incubation
Text: as §1, §2, §3

[2] = test system: Human colon carcinoma HCT-116 cells; assay: as above; assay type: cell-based; conditions: Homo sapiens, HCT-116, 72-hr incubation
Text: as §1, §2, §3

[3] = test system: human mammary carcinoma MX-1 xenograft; assay: Therapeutic effect in nude mice bearing MX-1 xenograft; assay type: in vivo; conditions: intravenous injection
Experimental: FIGS. 2A-B illustrates the therapeutic effect of DA-1090, 1099, 1124, 1012 and 1107 in nude mice bearing human mammary carcinoma MX-1 xenograft (i.v. inj, n=3-4), average tumor size changes (FIG. 2A) and average body weight changes (FIG. 2B).
(§4) Athymic nude mice bearing the nu/nu gene were obtained from NCI, Frederick, Md. and used for all human tumor xenografts. Male nude mice, 6 weeks or older, weighing 20-24 g or more were used. Compounds were administered via the tail vein for i.v. injection or infusion as described previously (Chou T-C et al., Proc. Natl. Acad. Sci. USA 2001, 98, 8113-8118). Various formulations were prepared for injections into the mice for chemotherapeutic studies. As an example, a drug was dissolved in DSMO to make a 25 mg/ml fresh solution, 0.4 ml of this solution was mixed with 0.3 ml of Tween 80, plus 1.3 ml to make 2 ml of 5 mg/ml solution. Bolus injection volume was 0.1-0.2 ml per mouse.
Athymic nude mice bearing the nu/nu gene were used for human breast tumor MX-1 xenograft (FIGS. 2, 2A and 2B). Nude mice were obtained from National Cancer Institute, Frederick, Md. Male mice, 6 weeks old or older, weighing 22 g or more were used for experiments with subcutaneous tumor inoculation as described previously (Chou T-C, Pharmacol. Rev. 2006, 58, 621-681). Drug was administrated via the tail vein by iv injection. Tumor volumes were assessed by measuring length×width×height (or width) by using caliper. An example of vehicle used was 20 μL DMSO in 180 μL saline. All animal studies were conducted in accordance with the guidelines of the U.S. National Institutes of Health Guide for the Care and Use of Animals and the protocol approved by the Institutional Animal Care and Use Committee.

[4] = test system: CCRF-CEM human lymphoblastic leukemia cells; assay: In vitro cytotoxicity, XTT assay, 72-hr incubation; assay type: cell-based; conditions: Homo sapiens, CCRF-CEM
Text: as §1, §2, §3

[5] = test system: ovarian adenocarcinoma SK-OV-3 xenograft; assay: Therapeutic effect in nude mice bearing SK-OV-3 xenograft; assay type: in vivo; conditions: intravenous injection, on day 22
Experimental: FIGS. 4A-B illustrates the therapeutic effects of DA-1090, 1099, 1107 in nude mice bearing ovarian adenocarcinoma SK-OV-3 xenograft (i.v. inj., n=3), average tumor size changes (FIG. 4A) and average body weight changes (FIG. 4B).
as §4
(§5) The therapeutic effects of N-mustard DA-1099 against human prostate adenocarcinoma PC-3 s.c. xenograft in nude mice is shown in FIGS. 3, 3A and 3B. xenograft (i.v. inj., n=3), average tumor size changes (FIG. 3A) and average body weight changes (FIG. 3B). […] Under optimal therapeutic conditions, intravenous injection, of DA-1090, 1099, and 1107, 20 (QD×4), 50 (QD×3), and 20 (QD×4) mg/kg, respectively, yielded 53%, 78%, and 71% tumor suppression, respectively, on day 22.

[6] = test system: human prostate adenocarcinoma PC-3 xenograft; assay: Therapeutic effect in nude mice bearing PC-3 xenograft; assay type: in vivo; conditions: 50 mg/kg, QD×4, i.v. inj.
Experimental: FIGS. 3A-B illustrates the therapeutic effect of DA-1099 in nude mice bearing human prostate adenocarcinoma PC-3 xenograft (i.v. inj., n=3), average tumor size changes (FIG. 3A) and average body weight changes (FIG. 3B).
as §4, §5

[7] = 18 mg/kg, every other two days (Q2D), two times
[8] = 30 mg/kg, every other two days (Q2D), two times
[9] = 15 mg/kg, every other two days (Q2D), two times

Row | SMILES | IC50 (CCRF-CEM/VBL) [nM] | fold of cross-resistant, CCRF-CEM/VBL vs IC50 of the parent cell line (CCRF-CEM/VBL) | IC50 (CCRF-CEM/Taxol) [nM] | fold of cross-resistant, CCRF-CEM/Taxol vs IC50 of the parent cell line (CCRF-CEM/Taxol) | IC50 [1] [nM] | IC50 [2] [nM] | antitumor therapeutic effect (tumor size) ([3]; 5 mg/kg, daily (QD) 3 times) | toxicity ([3]; 5 mg/kg, daily (QD) 3 times) | IC50 [4] [nM] | tumor suppression ([5]; 20 mg/kg (QD×4)) [%] | antitumor therapeutic effect (tumor size) [3, 7] | toxicity [3, 7] | tumor suppression ([5]; 50 mg/kg (QD×3)) [%] | tumor-growth suppression [6] | antitumor therapeutic effect (tumor size) ([3]; 18 mg/kg, daily (QD) 3 times) | toxicity ([3]; 18 mg/kg, daily (QD) 3 times) | antitumor therapeutic effect (tumor size) [3, 8] | toxicity [3, 8] | antitumor therapeutic effect (tumor size) [3, 9] | toxicity [3, 9]
1 | CNC(=O)OCc1c(COC(=O)NC)c(-c2ccc(OC)cc2)n2c1Cc1ccccc1-2 [DA-1012, Methylcarbamic acid 3-(4-methoxy-phenyl)-2-methylcarbamoyloxymethyl-8H-3a-azacyclopenta[a]inden-1-ylmethyl ester] | 70 | [1.4x] | 58 | [1.2x] | 1940 | 2740 | tumor total disappearance | low toxicity | 49 |  |  |  |  |  |  |  |  |  |  | 
2 | Cc1c(CO)c(CO)c2n1-c1ccccc1C2 [DA-1090, (2-Hydroxymethyl-3-methyl-8H-3a-aza-cyclopenta[a]inden-1-yl)methanol] | 29.7 | [0.39x]^c | 66.3 | [0.87x] | 357 | 332 |  |  | 76 | 53 | tumor total disappearance | low toxicity |  |  |  |  |  |  |  | 
3 | CCc1c(CO)c(CO)c2n1-c1ccccc1C2 [DA-1099, (3-Ethyl-2-hydroxymethyl-8H-3a-azacyclopenta[a]inden-1-yl)methanol] | 133 | [0.37x] | 229 | [0.64x] | 1080 | 825 |  |  | 356 |  |  |  | 78 | complete tumor-growth suppression | tumor total disappearance | low toxicity |  |  |  | 
4 | Cc1c(CO)c(CO)c2n1Cc1ccccc1C2 [DA-1107, (2-Hydroxymethyl-3-methyl-5,10-dihydropyrrolo[1,2-b]isoquinolin-1-yl)methanol] | 93 | [1.15x] | 98 | [1.21x] | 616 | 281 |  |  | 81 | 71 |  |  |  |  |  |  | tumor total disappearance | low toxicity |  | 
5 | CNC(=O)OCc1c(COC(=O)NC)c(-c2ccccc2OC)n2c1Cc1ccccc1-2 [DA-1124, Methylcarbamic acid 3-(2-methoxyphenyl)-2-methylcarbamoyloxymethyl-8H-3a-aza-cyclopenta[a]inden-1-ylmethyl ester] | 243 | [1.79x] | 360 | [2.65x] | 1330 | 151 |  |  | 136 |  |  |  |  |  |  |  |  |  | tumor total disappearance | low toxicity

Reference: patent US8410130B2, “Synthesis of 8H-3A-aza-cyclopenta [A ]indenes and 5,10-dihydropyrrolo[1,2-B]isoquinolines derivatives and their use as antitumor therapeutic agents” (Academia Sinica, priority 2007, dated 2013)
